In PubChem BioAssay (NCI):
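GI50: concentration for 50% inhibition of growth. TGI: total growth inhibition.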

What was measured:
Experiment in all cases: NCI-60 cell line screen, 384-well format
[1] = tested on: NCI/ADR-RES ovarian
[2] = tested on: PC-3 prostate
[3] = tested on: MALME-3M melanoma
[4] = tested on: HOP-62 NSCLC
[5] = tested on: A498 renal
[6] = tested on: CAKI-1 renal
[7] = tested on: OVCAR-3 ovarian
[8] = tested on: TK-10 renal
[9] = tested on: NCI-H226 lung
[10] = tested on: DU-145 prostate
[11] = tested on: UO-31 renal
[12] = tested on: UACC-257 melanoma
[13] = tested on: MDA-MB-435 melanoma
[14] = tested on: SN12C renal
[15] = tested on: HOP-92 NSCLC
[16] = tested on: SK-MEL-28 melanoma
[17] = tested on: COLO 205 colon
[18] = tested on: HCT-15 colon
[19] = tested on: SW-620 colon
[20] = tested on: HS 578T breast
[21] = tested on: EKVX NSCLC
[22] = tested on: BT-549 breast
[23] = tested on: SR leukemia
[24] = tested on: UACC-62 melanoma
[25] = tested on: SF-295 CNS
[26] = tested on: NCI-H460 NSCLC
[27] = tested on: MCF7 breast
[28] = tested on: T-47D breast
[29] = tested on: IGROV1 ovarian
[30] = tested on: ACHN renal
[31] = tested on: CCRF-CEM leukemia
[32] = tested on: SK-OV-3 ovarian
[33] = tested on: SF-268 CNS
[34] = tested on: NCI-H522 lung
[35] = tested on: RXF 393 renal
[36] = tested on: SNB-75 CNS
[37] = tested on: 786-0 renal
[38] = tested on: SNB-19 CNS
[39] = tested on: SK-MEL-5 melanoma
[40] = tested on: OVCAR-8 ovarian
[41] = tested on: M14 melanoma
[42] = tested on: OVCAR-4 ovarian
[43] = tested on: HCT-116 colon
[44] = tested on: MDA-MB-231 breast
[45] = tested on: MOLT-4 leukemia
[46] = tested on: SF-539 CNS
[47] = tested on: HCC-2998 colon
[48] = tested on: A549 NSCLC
[49] = tested on: OVCAR-5 ovarian
[50] = tested on: KM12 colon
[51] = tested on: RPMI-8226 leukemia
[52] = tested on: LOX IMVI melanoma
[53] = tested on: U251 glioblastoma
[54] = tested on: HL-60(TB) leukemia
[55] = tested on: NCI-H23 lung
[56] = tested on: MDA-MB-468 breast
[57] = tested on: NCI-H322M lung

## CNC(=O)c1cc(Oc2ccc(NC(=O)Nc3ccc(Cl)c(C(F)(F)F)c3)c(F)c2)ccn1
[1]
  GI50: 2060 nM
  TGI: 5.1 µM
[2]
  GI50: 3.79 µM
  TGI: 16.3 µM
[3]
  GI50: 719 nM
  TGI: 3.09 µM
[4]
  GI50: 2980 nM
  TGI: 10.1 µM
[5]
  GI50: 3.66 µM
  TGI: 21.7 µM
[6]
  GI50: 2670 nM
  TGI: 7.59 µM
[7]
  GI50: 4.55 µM
  TGI: 12.6 µM
[8]
  GI50: 3.49 µM
  TGI: 76.2 µM
[9]
  GI50: 1930 nM
[10]
  GI50: 3.02 µM
  TGI: 9.32 µM
[11]
  GI50: 2020 nM
  TGI: 5.44 µM
[12]
  GI50: 2450 nM
  TGI: 9.07 µM
[13]
  GI50: 3.14 µM
  TGI: 14.6 µM
[14]
  GI50: 3.16 µM
  TGI: 11 µM
[15]
  GI50: 2270 nM
  TGI: 5.43 µM
[16]
  GI50: 1390 nM
  TGI: 8.75 µM
[17]
  GI50: 1640 nM
  TGI: 4.7 µM
[18]
  GI50: 2520 nM
  TGI: 9.38 µM
[19]
  GI50: 2970 nM
  TGI: 13.9 µM
[20]
  GI50: 2330 nM
  TGI: 7.35 µM
[21]
  GI50: 2120 nM
  TGI: 5.43 µM
[22]
  GI50: 3.2 µM
  TGI: 7.34 µM
[23]
  GI50: 1470 nM
  TGI: 2820 nM
[24]
  GI50: 2090 nM
  TGI: 7.66 µM
[25]
  GI50: 2130 nM
  TGI: 6.02 µM
[26]
  GI50: 3.08 µM
  TGI: 10.7 µM
[27]
  GI50: 1930 nM
  TGI: 5.47 µM
[28]
  GI50: 1560 nM
  TGI: 6.73 µM
[29]
  GI50: 2800 nM
  TGI: 14.5 µM
[30]
  GI50: 3.38 µM
  TGI: 25.1 µM
[31]
  GI50: 3.4 µM
  TGI: 8.05 µM
[32]
  GI50: 3.2 µM
  TGI: 9.43 µM
[33]
  GI50: 4.28 µM
  TGI: 14.4 µM
[34]
  GI50: 2830 nM
  TGI: > 24.7 µM
[35]
  GI50: 2490 nM
  TGI: 4.98 µM
[36]
  GI50: 5.14 µM
  TGI: 12.9 µM
[37]
  GI50: 2470 nM
  TGI: 7.76 µM
[38]
  GI50: 4.65 µM
  TGI: > 88.5 µM
[39]
  GI50: 1600 nM
  TGI: 3.86 µM
[40]
  GI50: 2170 nM
  TGI: 5.79 µM
[41]
  GI50: 1690 nM
  TGI: 8.56 µM
[42]
  GI50: 2550 nM
  TGI: 7.25 µM
[43]
  GI50: 1770 nM
  TGI: 8.6 µM
[44]
  GI50: 1350 nM
  TGI: 3.47 µM
[45]
  GI50: 1700 nM
  TGI: 3.2 µM
[46]
  GI50: 2130 nM
  TGI: 6.63 µM
[47]
  GI50: 2040 nM
  TGI: 5.98 µM
[48]
  GI50: 2660 nM
  TGI: 8.57 µM
[49]
  GI50: 5.79 µM
  TGI: 28.5 µM
[50]
  GI50: 3.03 µM
  TGI: 15.5 µM
[51]
  GI50: 1730 nM
  TGI: 3.3 µM
[52]
  GI50: 1390 nM
  TGI: 3.99 µM
[53]
  GI50: 3.06 µM
  TGI: 11 µM
[54]
  GI50: 734 nM
  TGI: 1970 nM
[55]
  GI50: 1340 nM
  TGI: 3.43 µM
[56]
  GI50: 1720 nM
  TGI: 4.31 µM
[57]
  GI50: 2660 nM
  TGI: 6.21 µM
